Assay results reported in the supplement of paper PMC10307832.

How the values were obtained:
Experiment in all cases: relative viability (nuclei count vs DMSO), 5 days (fraction); higher = more cells survive
[1] = compound: CCN(CCO)CCCC(C)Nc1ccnc2cc(Cl)ccc12 [Hydroxychloroquine] + CC(C)C[C@H](NC(=O)[C@H](Cc1ccccc1)NC(=O)c1cnccn1)B(O)O [Bortezomib] (partner 0.002 µM)
Method in brief: (§1)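 For relative viability, nuclei counts in treated wells were divided by those in vehicle wells. Lung cancer cell lines had been pin-tool dosed in 1536-well plates the day after seeding and cultured for 5 days, then fixed and stained in one step (final 0.05% Triton X-100, 1% formaldehyde, 1 ug/ml Hoechst) and imaged at 4×. Doses were one drug alone or a fixed anchor-drug dose plus five library-drug doses (not always all listed) in √10 steps, and values are duplicate-plate medians.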

[2] = compound: CCN(CCO)CCCC(C)Nc1ccnc2cc(Cl)ccc12 [Hydroxychloroquine] + CS(=O)(=O)CCNCc1ccc(-c2ccc3ncnc(Nc4ccc(OCc5cccc(F)c5)c(Cl)c4)c3c2)o1 [Lapatinib] (partner 2 µM)
Method in brief: as §1

[3] = compound: CCN(CCO)CCCC(C)Nc1ccnc2cc(Cl)ccc12 [Hydroxychloroquine] + NC(=O)Nc1cc(-c2cccc(F)c2)sc1C(=O)N[C@H]1CCCNC1 [AZD7762] (partner 0.2 µM)
Method in brief: as §1

[4] = compound: CCN(CCO)CCCC(C)Nc1ccnc2cc(Cl)ccc12 [Hydroxychloroquine] + Nc1ncn([C@H]2C[C@H](O)[C@@H](CO)O2)c(=O)n1 [Decitabine] (partner 2 µM)
Method in brief: as §1

NCI-H23
relative viability ([1]; first compound 0.5 µM): 1.15 | relative viability ([1]; first compound 1.581 µM): 1.14 | relative viability ([1]; first compound 5 µM): 0.884 | relative viability ([1]; first compound 15.81 µM): 1.02 | relative viability ([1]; first compound 50 µM): 0.881 | relative viability ([2]; first compound 0.5 µM): 1.08 | relative viability ([2]; first compound 1.581 µM): 0.915 | relative viability ([2]; first compound 5 µM): 0.957 | relative viability ([2]; first compound 15.81 µM): 1.22 | relative viability ([2]; first compound 50 µM): 1.1 | relative viability ([3]; first compound 0.5 µM): 0.263 | relative viability ([3]; first compound 1.581 µM): 0.355 | relative viability ([3]; first compound 5 µM): 0.21 | relative viability ([3]; first compound 15.81 µM): 0.271 | relative viability ([3]; first compound 50 µM): 0.248 | relative viability ([4]; first compound 0.5 µM): 0.321 | relative viability ([4]; first compound 1.581 µM): 0.294 | relative viability ([4]; first compound 5 µM): 0.288 | relative viability ([4]; first compound 15.81 µM): 0.288 | relative viability ([4]; first compound 50 µM): 0.305

NCI-H322M
relative viability ([1]; first compound 0.5 µM): 1.31 | relative viability ([1]; first compound 1.581 µM): 1.27 | relative viability ([1]; first compound 5 µM): 1.16 | relative viability ([1]; first compound 15.81 µM): 1.36 | relative viability ([1]; first compound 50 µM): 1.2 | relative viability ([2]; first compound 0.5 µM): 0.557 | relative viability ([2]; first compound 1.581 µM): 0.642 | relative viability ([2]; first compound 5 µM): 0.554 | relative viability ([2]; first compound 15.81 µM): 0.619 | relative viability ([2]; first compound 50 µM): 0.634 | relative viability ([3]; first compound 0.5 µM): 0.681 | relative viability ([3]; first compound 1.581 µM): 0.433 | relative viability ([3]; first compound 5 µM): 0.447 | relative viability ([3]; first compound 15.81 µM): 0.487 | relative viability ([3]; first compound 50 µM): 0.482 | relative viability ([4]; first compound 0.5 µM): 0.66 | relative viability ([4]; first compound 1.581 µM): 0.698 | relative viability ([4]; first compound 5 µM): 0.732 | relative viability ([4]; first compound 15.81 µM): 0.665 | relative viability ([4]; first compound 50 µM): 0.637

NCI-H460
relative viability ([1]; first compound 0.5 µM): 1.08 | relative viability ([1]; first compound 1.581 µM): 1.05 | relative viability ([1]; first compound 5 µM): 1.1 | relative viability ([1]; first compound 15.81 µM): 1.39 | relative viability ([1]; first compound 50 µM): 1.36 | relative viability ([2]; first compound 0.5 µM): 1.03 | relative viability ([2]; first compound 1.581 µM): 1.05 | relative viability ([2]; first compound 5 µM): 0.778 | relative viability ([2]; first compound 15.81 µM): 1.55 | relative viability ([2]; first compound 50 µM): 1.5 | relative viability ([3]; first compound 0.5 µM): 0.727 | relative viability ([3]; first compound 1.581 µM): 0.645 | relative viability ([3]; first compound 5 µM): 0.63 | relative viability ([3]; first compound 15.81 µM): 0.749 | relative viability ([3]; first compound 50 µM): 0.615 | relative viability ([4]; first compound 0.5 µM): 0.431 | relative viability ([4]; first compound 1.581 µM): 0.528 | relative viability ([4]; first compound 5 µM): 0.441 | relative viability ([4]; first compound 15.81 µM): 0.563 | relative viability ([4]; first compound 50 µM): 0.559

NCI-H596
relative viability ([1]; first compound 0.5 µM): 1.04 | relative viability ([1]; first compound 1.581 µM): 0.857 | relative viability ([1]; first compound 5 µM): 0.847 | relative viability ([1]; first compound 15.81 µM): 0.999 | relative viability ([1]; first compound 50 µM): 1.19 | relative viability ([2]; first compound 0.5 µM): 0.969 | relative viability ([2]; first compound 1.581 µM): 0.995 | relative viability ([2]; first compound 5 µM): 1.04 | relative viability ([2]; first compound 15.81 µM): 1.05 | relative viability ([2]; first compound 50 µM): 1 | relative viability ([3]; first compound 0.5 µM): 0.924 | relative viability ([3]; first compound 1.581 µM): 0.902 | relative viability ([3]; first compound 5 µM): 1.14 | relative viability ([3]; first compound 15.81 µM): 1.11 | relative viability ([3]; first compound 50 µM): 1.05 | relative viability ([4]; first compound 0.5 µM): 0.954 | relative viability ([4]; first compound 1.581 µM): 1.02 | relative viability ([4]; first compound 5 µM): 1.12 | relative viability ([4]; first compound 15.81 µM): 0.966 | relative viability ([4]; first compound 50 µM): 0.993

NCI-H647
relative viability ([1]; first compound 0.5 µM): 1.07 | relative viability ([1]; first compound 1.581 µM): 1.19 | relative viability ([1]; first compound 5 µM): 0.876 | relative viability ([1]; first compound 15.81 µM): 1.15 | relative viability ([1]; first compound 50 µM): 0.813 | relative viability ([2]; first compound 0.5 µM): 1.22 | relative viability ([2]; first compound 1.581 µM): 1.11 | relative viability ([2]; first compound 5 µM): 1.09 | relative viability ([2]; first compound 15.81 µM): 1.26 | relative viability ([2]; first compound 50 µM): 1.26 | relative viability ([3]; first compound 0.5 µM): 0.542 | relative viability ([3]; first compound 1.581 µM): 0.455 | relative viability ([3]; first compound 5 µM): 0.423 | relative viability ([3]; first compound 15.81 µM): 0.252 | relative viability ([3]; first compound 50 µM): 0.373 | relative viability ([4]; first compound 0.5 µM): 0.369 | relative viability ([4]; first compound 1.581 µM): 0.438 | relative viability ([4]; first compound 5 µM): 0.446 | relative viability ([4]; first compound 15.81 µM): 0.388 | relative viability ([4]; first compound 50 µM): 0.444

NCI-H650
relative viability ([1]; first compound 0.5 µM): 0.911 | relative viability ([1]; first compound 1.581 µM): 0.759 | relative viability ([1]; first compound 15.81 µM): 0.901 | relative viability ([1]; first compound 50 µM): 0.748 | relative viability ([2]; first compound 0.5 µM): 0.894 | relative viability ([2]; first compound 1.581 µM): 0.862 | relative viability ([2]; first compound 15.81 µM): 0.892 | relative viability ([2]; first compound 50 µM): 1.09 | relative viability ([3]; first compound 0.5 µM): 1.07 | relative viability ([3]; first compound 1.581 µM): 1.05 | relative viability ([3]; first compound 5 µM): 0.924 | relative viability ([3]; first compound 15.81 µM): 0.956 | relative viability ([3]; first compound 50 µM): 0.986 | relative viability ([4]; first compound 0.5 µM): 0.347 | relative viability ([4]; first compound 1.581 µM): 0.31 | relative viability ([4]; first compound 5 µM): 0.361 | relative viability ([4]; first compound 15.81 µM): 0.31 | relative viability ([4]; first compound 50 µM): 0.307

NCI-H727
relative viability ([1]; first compound 0.5 µM): 0.975 | relative viability ([1]; first compound 1.581 µM): 0.749 | relative viability ([1]; first compound 5 µM): 0.89 | relative viability ([1]; first compound 15.81 µM): 0.823 | relative viability ([1]; first compound 50 µM): 0.885 | relative viability ([2]; first compound 0.5 µM): 0.893 | relative viability ([2]; first compound 1.581 µM): 0.842 | relative viability ([2]; first compound 5 µM): 0.699 | relative viability ([2]; first compound 15.81 µM): 0.814 | relative viability ([2]; first compound 50 µM): 0.931 | relative viability ([3]; first compound 0.5 µM): 0.845 | relative viability ([3]; first compound 1.581 µM): 0.698 | relative viability ([3]; first compound 5 µM): 0.655 | relative viability ([3]; first compound 15.81 µM): 0.599 | relative viability ([3]; first compound 50 µM): 0.523 | relative viability ([4]; first compound 0.5 µM): 1.02 | relative viability ([4]; first compound 1.581 µM): 0.93 | relative viability ([4]; first compound 5 µM): 0.839 | relative viability ([4]; first compound 15.81 µM): 0.829 | relative viability ([4]; first compound 50 µM): 0.693

NCI-H838
relative viability ([1]; first compound 0.5 µM): 0.9 | relative viability ([1]; first compound 1.581 µM): 0.819 | relative viability ([1]; first compound 5 µM): 0.663 | relative viability ([1]; first compound 15.81 µM): 0.79 | relative viability ([1]; first compound 50 µM): 0.805 | relative viability ([2]; first compound 0.5 µM): 1.07 | relative viability ([2]; first compound 1.581 µM): 1.02 | relative viability ([2]; first compound 5 µM): 1.03 | relative viability ([2]; first compound 15.81 µM): 0.923 | relative viability ([2]; first compound 50 µM): 1.12 | relative viability ([3]; first compound 0.5 µM): 0.963 | relative viability ([3]; first compound 1.581 µM): 0.943 | relative viability ([3]; first compound 5 µM): 0.916 | relative viability ([3]; first compound 15.81 µM): 0.968 | relative viability ([3]; first compound 50 µM): 1.03 | relative viability ([4]; first compound 0.5 µM): 0.472 | relative viability ([4]; first compound 1.581 µM): 0.458 | relative viability ([4]; first compound 5 µM): 0.437 | relative viability ([4]; first compound 15.81 µM): 0.429 | relative viability ([4]; first compound 50 µM): 0.452

NCI-H1355
relative viability ([1]; first compound 0.5 µM): 1.24 | relative viability ([1]; first compound 1.581 µM): 1.19 | relative viability ([1]; first compound 5 µM): 1.09 | relative viability ([1]; first compound 15.81 µM): 1.12 | relative viability ([1]; first compound 50 µM): 1.25 | relative viability ([2]; first compound 0.5 µM): 1.03 | relative viability ([2]; first compound 1.581 µM): 0.88 | relative viability ([2]; first compound 5 µM): 1.02 | relative viability ([2]; first compound 15.81 µM): 0.887 | relative viability ([2]; first compound 50 µM): 1.06 | relative viability ([3]; first compound 0.5 µM): 0.747 | relative viability ([3]; first compound 1.581 µM): 0.795 | relative viability ([3]; first compound 5 µM): 0.679 | relative viability ([3]; first compound 15.81 µM): 0.72 | relative viability ([3]; first compound 50 µM): 0.81 | relative viability ([4]; first compound 0.5 µM): 0.319 | relative viability ([4]; first compound 1.581 µM): 0.344 | relative viability ([4]; first compound 5 µM): 0.369 | relative viability ([4]; first compound 15.81 µM): 0.371 | relative viability ([4]; first compound 50 µM): 0.338
